Results reported in patent publication US9610287B2 (H. Lundbeck A/S, priority 2011, dated 2017).
Blank lines part the entries; values can stand above or below the compound they belong to.

Key:
[1] = tested on: rats; experiment: Condition avoidance response (CAR) model in rats; format: in vivo, rat; details: at very low levels of D2 receptor occupancy
[2] = target: D2 receptor (Homo sapiens, UniProt P14416); experiment: PET study in healthy subjects, D2 receptor occupancy (11C-raclopride); format: in vivo; details: read-out: D2 receptor occupancy in the putamen
D2 receptor, sequence (P14416 whole entry): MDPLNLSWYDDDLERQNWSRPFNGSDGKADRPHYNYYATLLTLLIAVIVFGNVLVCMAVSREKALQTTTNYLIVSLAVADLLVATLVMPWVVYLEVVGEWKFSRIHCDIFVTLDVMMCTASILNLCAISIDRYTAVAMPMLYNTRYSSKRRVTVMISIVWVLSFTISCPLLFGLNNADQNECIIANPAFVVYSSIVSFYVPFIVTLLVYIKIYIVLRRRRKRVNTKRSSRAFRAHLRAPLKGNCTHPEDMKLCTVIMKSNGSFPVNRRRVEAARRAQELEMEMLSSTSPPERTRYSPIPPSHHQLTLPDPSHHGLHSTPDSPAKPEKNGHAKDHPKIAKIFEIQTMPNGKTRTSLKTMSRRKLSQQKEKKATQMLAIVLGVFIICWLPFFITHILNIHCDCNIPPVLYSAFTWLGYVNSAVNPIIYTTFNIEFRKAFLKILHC

[3] = target: T1, D2 receptors (Rattus norvegicus, UniProt P61169); experiment: In vivo binding to D2 receptors in rat brain ([3H]-raclopride); details: sc, subcutaneous
T1 construct: the brain quickly removed and striatum and cerebellum dissected out and homogenized; from tissue; host or cells: striatum of male Wistar rats (in vivo)
T1 sequence (P61169 whole entry): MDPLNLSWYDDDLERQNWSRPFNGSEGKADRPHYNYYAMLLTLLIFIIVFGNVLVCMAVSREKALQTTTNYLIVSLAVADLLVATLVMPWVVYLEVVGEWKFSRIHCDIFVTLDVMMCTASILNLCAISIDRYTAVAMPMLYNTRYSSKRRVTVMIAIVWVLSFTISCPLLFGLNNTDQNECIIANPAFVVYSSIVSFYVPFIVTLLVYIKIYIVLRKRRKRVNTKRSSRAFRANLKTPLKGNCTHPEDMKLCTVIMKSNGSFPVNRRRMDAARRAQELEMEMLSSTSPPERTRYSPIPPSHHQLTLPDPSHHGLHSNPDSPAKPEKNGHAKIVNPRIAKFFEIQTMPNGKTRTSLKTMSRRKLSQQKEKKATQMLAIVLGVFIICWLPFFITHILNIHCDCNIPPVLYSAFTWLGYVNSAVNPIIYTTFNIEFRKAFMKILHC
Description: Description of In Vivo Binding to D2 Receptors in Rat Brain
In vivo binding is carried out according to Andersen et al (Eur J Pharmacol, (1987) 144:1-6) with a few modifications (Kapur S. et al, J Pharm Exp Ther, 2003, 305, 625-631). Briefly, 6 rats (male Wistar, 180-200 g) are treated with 20 mg/kg test compound subcutaneous 30 minutes before receiving 9.4 micro Ci [^3H]-raclopride intravenous via the tail vein.
15 minutes after the injection of the radio ligand the animals are killed by cervical dislocation, the brain quickly removed and striatum and cerebellum dissected out and homogenized in 5 mL (cerebellum in 20 mL) ice-cold buffer (50 mM K2PO4, pH 7.4). 1.0 mL of the homogenate is filtered through 0.1% PEI—soaked Whatman GF/C filters. This is completed within 60 seconds subsequent to the decapitation. Filters are washed 2 times with 5 mL ice-cold buffer and counted in a scintillation counter. A group of vehicle treated animals is used to determine [^3H]-raclopride total binding in striatum and non-specific binding in cerebellum. The homogenate is measured for protein content by the BCA protein determination assay (Smith P. K. et al (1985) Anal. Biochem., 150: 6-85).

[4] = tested on: rats; details: fumarate salt; cited from earlier work
[5] = target: D1 receptor (Homo sapiens, UniProt P21728); experiment: PET study in healthy subjects, D1 receptor occupancy (11C-SCH23390); format: in vivo; details: read-out: D1 receptor occupancy in putamen
D1 receptor, sequence (P21728 whole entry): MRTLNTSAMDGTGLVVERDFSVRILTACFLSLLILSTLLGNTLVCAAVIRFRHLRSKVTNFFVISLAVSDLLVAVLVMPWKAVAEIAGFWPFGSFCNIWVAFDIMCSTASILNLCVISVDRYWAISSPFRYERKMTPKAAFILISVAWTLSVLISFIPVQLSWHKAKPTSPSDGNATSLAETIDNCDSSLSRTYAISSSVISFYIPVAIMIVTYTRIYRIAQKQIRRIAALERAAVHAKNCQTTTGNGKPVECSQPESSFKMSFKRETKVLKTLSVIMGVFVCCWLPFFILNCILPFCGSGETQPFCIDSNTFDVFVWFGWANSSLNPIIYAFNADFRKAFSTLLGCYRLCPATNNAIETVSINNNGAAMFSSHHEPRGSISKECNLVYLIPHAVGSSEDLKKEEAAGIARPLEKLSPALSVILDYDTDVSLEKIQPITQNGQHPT

[6] = tested on: schizophrenic patients; experiment: Randomized, double-blind study of daily vs weekly dosing in schizophrenic patients, PANSS Total Score; format: in vivo, human
Description: The study is a randomized, double-blind, parallel-group, exploratory study of safety, tolerability and PK of daily dosing vs weekly dosing of Compound (I) in schizophrenic patients.
The open-label period (OL_Period) is the period from start of open-label treatment (baseline) until stop of open-label treatment (at OL-withdrawal or randomisation to double-blind treatment, whichever occurs first).
The double-blind period (DB_Period) is the period from start of double-blind treatment (randomisation) until stop of double-blind treatment (at DB-withdrawal or completion, whichever occurs first), that is, the entire double-blind period including the PBO_Period.
The IMP dosing period (IMP_Period) is the period from start of open-label treatment (baseline) until stop of double-blind treatment (at withdrawal or completion, whichever occurs first), that is, the OL_Period plus the DB_Period.
A study was conducted with a study design as described in Example 2.

[7] = Elimination half life in human; details: in vivo
[8] = 2 mg/day given daily for 18 days
[9] = 10 mg/day given daily for 18 days

receptor occupancy at 2 mg [2, 8]: 11%
receptor occupancy at 10 mg [2, 9]: 43%
ED50 [3]: 4.1 mg/kg
receptor occupancy at 2 mg [5, 8]: 32%
receptor occupancy at 10 mg [5, 9]: 69%
half-life [7]: ~150 h
SMILES: CN1CCN([C@@H]2C[C@@H](c3ccccc3)c3ccc(Cl)cc32)CC1(C)C [Compound (I), 4-((1R,3S)-6-chloro-3-phenyl-indan-1-yl)-1,2,2-trimethyl-piperazine]
antipsychotic activity in CAR model [1]: possesses antipsychotic activity
induction of catalepsy [4]: does not induce catalepsy
Mean (change in PANSS) Total Score from randomization ([6]; 10 mg/day, study day 29): 1.55
Mean (change in PANSS) Total Score from randomization ([6]; 10 mg/day, study day 36): −1.00
Mean (change in PANSS) Total Score from randomization ([6]; 10 mg/day, study day 43): −2.50
Mean (change in PANSS) Total Score from randomization ([6]; 10 mg/day, study day 50): −3.50
Mean (change in PANSS) Total Score from randomization ([6]; 10 mg/day, study day 57): −5.80
Mean (change in PANSS) Total Score from randomization ([6]; 20 mg/week, study day 29): 0.00
Mean (change in PANSS) Total Score from randomization ([6]; 20 mg/week, study day 36): 0.80
Mean (change in PANSS) Total Score from randomization ([6]; 20 mg/week, study day 43): −2.00
Mean (change in PANSS) Total Score from randomization ([6]; 20 mg/week, study day 50): −1.22
Mean (change in PANSS) Total Score from randomization ([6]; 20 mg/week, study day 57): −4.38
Mean (change in PANSS) Total Score from randomization ([6]; 30 mg/week, study day 29): 1.09
Mean (change in PANSS) Total Score from randomization ([6]; 30 mg/week, study day 36): 0.50
Mean (change in PANSS) Total Score from randomization ([6]; 30 mg/week, study day 43): 4.00
Mean (change in PANSS) Total Score from randomization ([6]; 30 mg/week, study day 50): −4.14
Mean (change in PANSS) Total Score from randomization ([6]; 30 mg/week, study day 57): −5.43
Mean (change in PANSS) Total Score from randomization ([6]; 45 mg/week, study day 29): 0.40
Mean (change in PANSS) Total Score from randomization ([6]; 45 mg/week, study day 36): −3.50
Mean (change in PANSS) Total Score from randomization ([6]; 45 mg/week, study day 43): −5.70
Mean (change in PANSS) Total Score from randomization ([6]; 45 mg/week, study day 50): −8.00
Mean (change in PANSS) Total Score from randomization ([6]; 45 mg/week, study day 57): −6.88
reduction in PANSS Total Score compared with daily dose of 10 mg/day ([6]; once weekly, 20 mg/week to 45 mg/week, in particular 30 and 45 mg/week): as effective in reduction in PANSS Total Score as a daily dose of 10 mg/day
reduction of PANSS Total Score compared with daily dose of 10 mg/day ([6]; once weekly, between about 30 mg/week and about 45 mg/week): at least to the same extend as a daily dose of 10 mg/day

half-life [7]: 300 to 400 h
SMILES: CC1(C)CN([C@@H]2C[C@@H](c3ccccc3)c3ccc(Cl)cc32)CCN1 (relative stereo) [Compound (II), trans-1(6-chloro-3-phenyl-indan-1-yl)-3,3-dimethyl-piperazine]
